Measurements: the supplement of paper PMC11451515

Tested on: SEM cells
Assay: cell viability relative to DMSO control; higher = less cytotoxic
Conditions: 48 h
Procedure, shortened: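 Leukemia cells (NOMO1 or SEM, 500 cells/well; P12-Ichikawa, 1000 cells/well) were seeded in 5 μl in 1536-well plates after at least four passages of adaptation to each medium. They received library compounds in DMSO by pin dosing, 11 threefold points from 47 μM to 0.79 nM. Luminescence with CellTiter-Glo One was read after 48 h at 37°C. Viability is stated per plate relative to DMSO wells, with cell-free wells as background.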

[1] = HPLM + 10% dialyzed FBS, 0.000781 µM
[2] = HPLM + 10% dialyzed FBS, 0.00234 µM
[3] = HPLM + 10% dialyzed FBS, 0.00702 µM
[4] = HPLM + 10% dialyzed FBS, 0.0211 µM
[5] = HPLM + 10% dialyzed FBS, 0.0632 µM
[6] = HPLM + 10% dialyzed FBS, 0.19 µM
[7] = HPLM + 10% dialyzed FBS, 0.569 µM
[8] = HPLM + 10% dialyzed FBS, 1.71 µM
[9] = HPLM + 10% dialyzed FBS, 5.12 µM
[10] = HPLM + 10% dialyzed FBS, 15.4 µM
[11] = HPLM + 10% dialyzed FBS, 46.1 µM
[12] = RPMI 5 mM glucose + 10% FBS, 0.000781 µM
[13] = RPMI 5 mM glucose + 10% FBS, 0.00234 µM
[14] = RPMI 5 mM glucose + 10% FBS, 0.00702 µM
[15] = RPMI 5 mM glucose + 10% FBS, 0.0211 µM
[16] = RPMI 5 mM glucose + 10% FBS, 0.0632 µM
[17] = RPMI 5 mM glucose + 10% FBS, 0.19 µM
[18] = RPMI 5 mM glucose + 10% FBS, 0.569 µM
[19] = RPMI 5 mM glucose + 10% FBS, 1.71 µM
[20] = RPMI 5 mM glucose + 10% FBS, 5.12 µM
[21] = RPMI 5 mM glucose + 10% FBS, 15.4 µM
[22] = RPMI 5 mM glucose + 10% FBS, 46.1 µM
[23] = RPMI 5 mM glucose + 10% dialyzed FBS, 0.000781 µM
[24] = RPMI 5 mM glucose + 10% dialyzed FBS, 0.00234 µM
[25] = RPMI 5 mM glucose + 10% dialyzed FBS, 0.00702 µM
[26] = RPMI 5 mM glucose + 10% dialyzed FBS, 0.0211 µM
[27] = RPMI 5 mM glucose + 10% dialyzed FBS, 0.0632 µM
[28] = RPMI 5 mM glucose + 10% dialyzed FBS, 0.19 µM
[29] = RPMI 5 mM glucose + 10% dialyzed FBS, 0.569 µM
[30] = RPMI 5 mM glucose + 10% dialyzed FBS, 1.71 µM
[31] = RPMI 5 mM glucose + 10% dialyzed FBS, 5.12 µM
[32] = RPMI 5 mM glucose + 10% dialyzed FBS, 15.4 µM
[33] = RPMI 5 mM glucose + 10% dialyzed FBS, 46.1 µM

Compound	cell viability [1]	cell viability [2]	cell viability [3]	cell viability [4]	cell viability [5]	cell viability [6]	cell viability [7]	cell viability [8]	cell viability [9]	cell viability [10]	cell viability [11]	cell viability [12]	cell viability [13]	cell viability [14]	cell viability [15]	cell viability [16]	cell viability [17]	cell viability [18]	cell viability [19]	cell viability [20]	cell viability [21]	cell viability [22]	cell viability [23]	cell viability [24]	cell viability [25]	cell viability [26]	cell viability [27]	cell viability [28]	cell viability [29]	cell viability [30]	cell viability [31]	cell viability [32]	cell viability [33]
C[C@@]12C(=O)OC(=O)[C@@]1(C)C1CCC2O1	118%	103%	112%	112%	114%	107%	112%	95.1%	87.1%	6.65%	4.55%	105%	113%	112%	112%	112%	110%	124%	104%	73.1%	5.81%	4.32%	120%	116%	110%	124%	120%	113%	114%	96.8%	58.2%	6.57%	4.36%
Cc1cnn(C)c1C(=O)Nc1cc(Nc2ccc3c(/C=C/c4ccccn4)n[nH]c3c2)ccc1F	114%	123%	112%	103%	110%	89.6%	72.4%	70.7%	63.4%	49.7%	23.8%	120%	118%	121%	107%	104%	87.8%	67%	62.1%	45.4%	28.4%	4.94%	114%	119%	144%	124%	103%	89.1%	75.9%	68.3%	60.6%	43%	14.2%
C[C@]12CC[C@@H]3c4ccc(O)cc4CC[C@H]3[C@@H]1[C@@H](O)[C@@H](O)[C@@H]2O	104%	119%	112%	115%	116%	127%	123%	86%	125%	99.9%	84.1%	87.8%	125%	110%	82%	102%	88.5%	94.2%	80%	99%	99.4%	38.8%	101%	110%	120%	118%	121%	132%	126%	90%	129%	103%	64.5%
C[C@]12CCC(=O)C=C1CC[C@@H]1[C@@H]2[C@@H](O)C[C@@]2(C)[C@H]1CC[C@]2(O)C(=O)CO	108%	96.8%	98.1%	118%	104%	107%	121%	121%	108%	87.6%	99.2%	89.7%	82.7%	99.3%	91.4%	92.1%	102%	94.9%	97%	86.1%	68.2%	73.4%	99.2%	95%	114%	102%	102%	112%	96.7%	94.2%	92.5%	70%	62.7%
C[C@H](NC(=O)c1sccc1OCc1ccc(Cl)cc1)c1ccccc1	98.8%	94.4%	82.9%	88.2%	94.8%	83.4%	91.1%	92.5%	69.5%	80.1%	51%	96.9%	90.9%	92.5%	106%	112%	95.6%	85.1%	112%	73.3%	115%	20.4%	107%	97.3%	94.7%	94.1%	101%	101%	97.9%	101%	70.1%	99.6%	59.3%
CNCCCC12CCC(c3ccccc31)c1ccccc12	96.5%	108%	105%	99.7%	116%	114%	110%	105%	93.5%	89.6%	59.5%	87.3%	97.3%	98.2%	99.4%	76.6%	104%	106%	100%	90.5%	85.2%	63.8%	113%	125%	105%	110%	111%	115%	128%	107%	106%	118%	75.5%
CC(C)CNc1ccnc(NCc2csc(-c3ccccc3)n2)n1	88.4%	107%	104%	100%	121%	113%	107%	120%	108%	64.2%	61.1%	110%	110%	127%	113%	138%	145%	142%	138%	113%	88.9%	68.2%	–	–	–	–	–	–	–	–	–	–	–
Cc1nc2cnc3ccc(C#Cc4cccnc4)cc3c2n1-c1ccc(C(C)(C)C#N)cc1	65.5%	72.3%	84.3%	86.5%	45.2%	43.3%	28.4%	34%	32.3%	33.2%	17%	87.7%	104%	104%	110%	56.2%	60.2%	47.8%	34.2%	31%	32.4%	16.2%	69.8%	82.4%	84.3%	78.4%	50.4%	48.9%	44.2%	37.2%	31.6%	32.7%	15.7%
CC(C)c1noc(N2CCC(COc3ccc(-c4ccc([S+](C)(=O)[O-])cc4)nc3)CC2)n1	131%	81.5%	115%	122%	132%	32.7%	128%	84.8%	16.3%	122%	109%	111%	73.4%	140%	126%	134%	23.1%	120%	53.1%	12.9%	114%	112%	111%	56%	136%	138%	115%	28.8%	111%	60.4%	10.3%	100%	104%
O=C(C=CC#Cc1cccc(N[S+](=O)([O-])c2ccccc2)c1)NO	119%	103%	113%	119%	122%	109%	107%	87%	13.1%	4.27%	4.02%	112%	80.6%	103%	111%	109%	89.3%	101%	84.4%	10.9%	4.75%	4.28%	105%	94.8%	102%	100%	120%	117%	115%	80.2%	7.4%	5.47%	5.05%
COc1cc(OC2CCN(C)CC2)ccc1Nc1ncc2c(n1)n(C1CCCC1)c(=O)n2C	63.8%	87.5%	78.2%	69.4%	77.3%	99%	97.3%	64.7%	59%	25.6%	2.44%	87.4%	80.4%	79.3%	81.1%	99%	90.1%	83.2%	67.4%	76.1%	20.7%	2.73%	74.2%	88.5%	71.9%	75.4%	78.3%	96.1%	84.4%	55.4%	67.7%	26.6%	2.25%
Cc1c(C)n(Cc2ccc(-c3ccccc3C(=O)O)cc2)c2ccc(C(=O)N[C@@H](C)c3ccc([N+](=O)[O-])cc3)cc12	106%	101%	117%	105%	107%	105%	116%	110%	108%	109%	119%	109%	109%	115%	112%	118%	119%	118%	124%	120%	121%	110%	99.2%	117%	115%	112%	116%	127%	120%	117%	115%	115%	106%
O=C(Nc1cc(Cl)cc2c1[nH]c1cnccc12)c1cccnc1	121%	121%	116%	134%	124%	122%	118%	141%	133%	127%	113%	109%	108%	96.3%	117%	126%	125%	128%	129%	138%	121%	124%	113%	107%	109%	108%	100%	98.5%	116%	125%	123%	128%	117%
CNC(=O)c1ccc2cc(C3(O)CCn4cncc43)ccc2c1 (stereo not given)	128%	119%	103%	125%	125%	113%	108%	107%	106%	123%	107%	–	–	–	–	–	–	–	–	–	–	–	–	–	–	–	–	–	–	–	–	–	–
C[S+](=O)([O-])Nc1ccc([N+](=O)[O-])cc1Oc1ccccc1	95.8%	103%	99.8%	104%	117%	121%	107%	104%	107%	109%	62.9%	88.4%	111%	98.6%	90.5%	106%	95.7%	108%	105%	103%	82.7%	17.2%	103%	112%	124%	110%	109%	102%	95.8%	106%	106%	104%	54.3%
O=C1c2ccccc2-[n+]2ccc3c([nH]c4ccccc43)c21	91%	89.3%	102%	77.2%	70.7%	73.6%	68%	55.8%	19.6%	3.74%	2.58%	116%	109%	102%	92.1%	78.2%	92.7%	85.7%	59.6%	32.3%	3.62%	2.81%	92.7%	98%	91.9%	80.2%	87.4%	84.9%	65.4%	58.1%	32.6%	3.56%	2.5%
